Experimental data published in patent US5733896A, “N-(3-fluoro-2-phosphonylmethoxypropyl) derivatives of purine and pyrimidine heterocyclic bases, their preparation and use” (priority 1990, dated 1998).
≈ marks a conversion by molar mass, not a printed value. Read-outs that look alike come from different tables or passages of the source.

Columns and labels:
HIV = settings: cited from earlier work
[1] = Cytotoxicity: dose decreasing the viability of MT4 cells to one half; assay type: cell-based; settings: human, mt-4 cells
Description: (§1) Effect of compounds of the general formula I on multi-
(§2) plication of HIV-1 in tissue cultures of MT-4 cells
^b dose, decreasing the viability of MT4 cells to one half;

HIV-1 = assay: Effect on multiplication of HIV-1 in tissue cultures of MT-4 cells (suppression of cytopathogenic effect); assay type: cell-based
Description: as §1, §2
^a Dose, suppressing by 50% the cytopatogenic effect of HIV1 in MT4

MSV-induced tumor = assay: Effect on the evolution of an MSV-induced tumor in newborn NMRI mice; assay type: in vivo
Description: Effect of compounds of the general formula I on the evolution
of an MSV-induced tumor in newborn NMRI mice

[2] = tested on: retroviruses, such as HIV; settings: cited from earlier work
murine leukemia virus = settings: experimental animals; cited from earlier work
[3] = tested on: simian immunodefficiency virus (SIV); settings: experimental animals; cited from earlier work
Moloney sarcoma virus = settings: experimental animals; cited from earlier work
[4] = read-out: CD50 (dose, decreasing the viability of MT4 cells to one half)
[5] = Human immunodeficiency virus 1, MT4, HIV-1, MT-4 cells, read-out: ED50 (dose, suppressing by 50% the cytopatogenic effect of HIV1 in MT4 cells)

SMILES | effect on HIV in tissue cultures (HIV) | SI (ratio CD50/ED50) (HIV-1; HIV-1, MT-4 cells) | Median day of tumor formation (MSV-induced tumor; dose 1 mg/kg/day) | Median survival time (MSV-induced tumor; dose 1 mg/kg/day) | Median day of tumor formation (MSV-induced tumor; dose 5 mg/kg/day) | Median survival time (MSV-induced tumor; dose 5 mg/kg/day) | Median day of tumor formation (MSV-induced tumor; dose 20 mg/kg/day) | other results
Cc1cc(-c2ccc(/N=N/c3ccc4c(S(=O)(=O)O)cc(S(=O)(=O)O)c(N)c4c3O)c(C)c2)ccc1/N=N/c1ccc2c(S(=O)(=O)O)cc(S(=O)(=O)O)c(N)c2c1O [Evans Blue] | significant effects in tissue cultures |  |  |  |  |  |  | 
Nc1nc2c(ncn2CC(CF)OCP(=O)(O)O)c(=O)[nH]1 (racemic) [Compound 2] |  | 50 | 5.2 | 11.7 days | 8.5 | 12.5 days | > 13 | CC50 [1, 4]: 233 µg/mL (≈ 725 µM); EC50 (HIV-1; [5]): 4.7 µg/mL (≈ 14.6 µM); Median survival time (MSV-induced tumor; dose 20 mg/kg/day): 10 days
Nc1ccn([C@H]2CC[C@@H](CO)O2)c(=O)n1 [2',3'-dideoxycytidine] |  |  |  |  |  |  |  | efficiency in the treatment of experimental animals [2]: efficient in the treatment of experimental animals
Nc1ncnc2c1ncn2CCOCP(=O)(O)O [IX, reference compound] | have proven its effect | 7.2 | 6.1 | 14.7 days | 10.1 | 17.2 days | > 13 | effect on murine leukemia virus (murine leukemia virus): have proven its effect; CC50 [1]: 14.2 µg/mL (≈ 52 µM); effect on simian immunodefficiency virus (SIV) [3]: have proven its effect; EC50 (HIV-1; Human immunodeficiency virus 1, MT4, read-out: ED50 (dose, suppressing by 50% the cytopatogenic effect of HIV1 in MT4 cells)): 2 µg/mL (≈ 7.32 µM); effect on Moloney sarcoma virus (Moloney sarcoma virus): have proven its effect
Cc1cn([C@H]2C=C[C@@H](CO)O2)c(=O)[nH]c1=O [2',3'-dideoxy-2',3'-didehydrothymidine] |  |  |  |  |  |  |  | efficiency in the treatment of experimental animals [2]: efficient in the treatment of experimental animals
Nc1ncnc2c1ncn2CC(CF)OCP(=O)(O)O (racemic) [Compound 1, 9-(RS)-(3-fluoro-2-phosphonylmethoxypropyl)-adenine] |  | > 90 | 5.8 | 10.9 days | 7.5 | 14.4 days | > 13 | CC50 [1, 4]: > 1000 µg/mL; EC50 (HIV-1; [5]): 11.2 µg/mL (≈ 36.7 µM)
O=C(O)C1=CC(=C(c2ccc(O)c(C(=O)O)c2)c2ccc(O)c(C(=O)O)c2)C=CC1=O [aurine-tricarboxylic acid] | significant effects in tissue cultures |  |  |  |  |  |  | 
